These results are taken from patent US11617729B2 (priority 2019, dated 2023).

For test [1], the system named is liver cancer cells Huh7. The test is described as follows: Inhibition of fluorescently labeled DNA uptake by liver cancer cells. In kind it is cell-based. To be noted: then labeled DNA for 8 hours. The protocol: 1.8 KB of AFP (alpha feto protein) DNA is obtained through PCR (polymerase chain reaction), extracted with phenol-chloroform and adjusted to a concentration of 1 μg/mL. 5 μg of DNA is taken, and Rhodamine (fluorescent marker) is added. The mixture is allowed to stand at 37° C. for 1 hour, and purified in a G-50 Sephadex (purification column).
1640 medium is taken, and FBS (fetal bovine serum) is added, wherein the mass of FBS (fetal bovine serum) is 10% of that of 1640 medium. Put the mixture aside.
Eight groups of liver cancer cells Huh7 are inoculated into a 1640 medium respectively containing 10% FBS (fetal bovine serum) and cultured at 37° C. for 12 hours in an incubator containing 5% CO2.
Cells obtained through culture are rinsed 3 times with PBS and fixed with 4% formalin. The cells fixed as described above are photographed with a fluorescence microscope. […] The concentration of T3 is: 0 ng/mL, 1 ng/mL, 50 ng/mL and 100 ng/mL respectively.

Test [2] relates to liver cancer cells Huh7. The test is described as follows: Inhibition of liver cancer cell proliferation (CellTiter 96 AQueous One Solution). The format is cell-based. As to conditions: 72 hours, 490 nm absorbance. As for the experimental part:
(§1) Liver cells LO2 and liver cancer cells Huh7 are inoculated into a 1640 medium containing 10% FBS (fetal bovine serum) respectively, and cultured at 37° C. for 12 hours in an incubator containing 5% CO2. […] The CellTiter 96® AQueous One Solution kit is used to determine the cells. 20 μL of analytical reagents are added and readings are taken at 490 nm absorbance.

The test system of test [3] is LLC lung cancer cell strains. As to the kind of experiment: Inhibition of the growth of mouse lung cancer tumors. As to conditions: for Inhibition rate on the seventh day: 480 mg/kg intraperitoneally once a day for 7 days, vs normal saline group, hydrochloride. In kind it is in vivo, CK57BL mice. As for the experimental part:
Preparation of tumor cell suspension: LLC lung cancer cell strains are inoculated into a DMEM medium containing 10% FBS (fetal bovine serum), and cultured at 37° C. for 12 h in an incubator containing 5% CO2. When the cells grow to the logarithmic phase, the above medium is prepared into a cell suspension, and the concentration is 1×10^6 cells/mL to obtain the lung cancer cell suspension for later use.
Building of animal tumor model: 20 SPF grade CK57BL mice, male and (20±2) g, are taken. The above mice are kept in a laboratory without particular pathogens. The right armpit skin of the mice is disinfected with alcohol, and 0.2 mL of the above tumor cell suspension is drawn with a 1 mL syringe, and inoculated into the disinfected part of the mice by slow hypodermic injection. All mice are given sufficient water and feed, the litter is kept dry and the tumor growth of the mice is observed. Generally, about 10 days after modeling, obvious tumor nodules can be felt under the armpits of the mice, which means that the modeling was successful.

Another test has as its system liver cells LO2. The test is described as follows: Proliferation of liver cells (CellTiter 96 AQueous One Solution). In kind it is cell-based. As to conditions: 72 hours, 490 nm absorbance. The protocol: as §1
Test [4] deals with H22 mouse liver cancer cells. As to the kind of experiment: Inhibition of the growth of mouse liver cancer tumors. In kind it is in vivo, Kunming mice. To be noted: for Inhibition rate (ninth day): vs normal saline group, hydrochloride; for tumor volume, Ninth day / tumor volume, Sixth day / tumor volume, Third day: H22 tumors in Kunming mice. As for the experimental part: Preparation of tumor cell suspension: H22 mouse liver cancer cells are inoculated into a 1640 medium containing 10% FBS (fetal bovine serum), and cultured at 37° C. for 12 h in an incubator containing 5% CO2. When the cells grow to the logarithmic phase, the above medium is prepared into a cell suspension, and the concentration of H22 mouse liver cancer cells is controlled to 1×10^6 cells/mL to obtain the tumor cell suspension for later use.
Building of animal tumor model: 30 SPF grade Kunming mice, male and (20±2) g, are taken. […] The right armpit skin of mice in each group is disinfected with alcohol, and 0.2 mL of the above tumor cell suspension is drawn with a 1 mL syringe, and inoculated into the disinfected part of the mice by slow hypodermic injection. All mice are given sufficient water and feed, the litter is kept dry and the tumor growth of the mice is observed. Generally, 7 days after modeling, obvious tumor nodules can be felt under the armpits of the mice, which means that the modeling was successful.

Setting [5] is: 480 mg/kg intraperitoneally once a day, LLC tumors in CK57BL mice.
Setting [6] is: high-dose, 480 mg/kg intraperitoneally twice a day.
[7] abbreviates: low-dose, 240 mg/kg intraperitoneally twice a day.

Take `N[C@@H](Cc1cc(I)c(Oc2ccc(O)c(I)c2)c(I)c1)C(=O)O` [triiodothyronine]: in the test with liver cancer cells Huh7 [1] (control groups with 0, 1, 50, 100 ng/mL T3 for 24 hours), the “uptake of fluorescently labeled DNA by liver cancer cells” value is reported as “do not affect the uptake”.

For guanidine hydrochloride, the “growth of cancer cells Huh7” value was “begins to significantly inhibit” with liver cancer cells Huh7 [2] (6 mmol/L) and “significantly inhibited” in the test with liver cancer cells Huh7 [2] (20 mmol/L). Moreover, in the test on liver cancer cells Huh7 [1] (0, 1, 25, 50 mmol/L guanidine hydrochloride for 24 hours, fluorescence microscope), the “uptake of fluorescently labeled DNA by liver cancer cells” value is “significantly inhibit the uptake of DNA”. Moreover, the “Inhibition rate on the seventh day” value in test [3] and in test [3] (listed as Guanidine hydrochloride) was 56.8% each time. Further, the “tumor volume, First day” value in test [3] (setting [5]) came to 0.43 cm^3. In addition, the “tumor volume, Seventh day” value in test [3] (setting [5]) was 1.8 cm^3. Besides, the “tumor volume, Third day” value in test [3] (setting [5]) is given as 0.92 cm^3; in test [4] (setting [6]), 0.54 cm^3; in test [4] (setting [7]), 0.55 cm^3. The figures for the “growth of liver cells LO2” value in the test with liver cells LO2 (6 mmol/L) and in the test on liver cells LO2 (20 mmol/L) were “does not affect the growth” and “significantly inhibited”, respectively. The “Inhibition rate (ninth day)” value is given as 42% in test [4] (high-dose, 480 mg/kg intraperitoneally twice a day for 9 days, 480 mg/kg) and 24% in test [4] (low-dose, 240 mg/kg intraperitoneally twice a day for 9 days, 240 mg/kg). Besides, the “tumor volume, Ninth day” value in test [4] (setting [6]) was 2.37 cm^3; in test [4] (setting [7]), 3.11 cm^3. The figures for the “tumor volume, Sixth day” value in test [4] (setting [6]) and in test [4] (setting [7]) were 1.47 cm^3 and 2.16 cm^3, respectively.
